Experimental findings from patent US20240158406A1, “PIPERAZINE DERIVATIVE AND USE THEREOF IN MEDICINE” (CHENGDU BAIYU PHARMACEUTICAL CO., LTD., priority 2021, published 2024) are described below.

The nature of data set [1]: Metabolic stability in liver microsome. Type of data set: in vitro ADME. To be noted: 0.5 mg/mL CD1 mouse liver microsome, 0.5 μM test compound, NADPH and UDPGA, 37° C. As for the experimental part:
0.5 mg/mL CD1 mouse liver microsome solution, 0.5 μM test compound, 1.0 mM reduced nicotinamide adenine dinucleotide phosphate (NADPH), and 1.0 mM uridine diphosphate-A-glucuronic acid (UDPGA) were added to the incubation plate and mixed, and the plate was incubated at 37° C. for 0, 30, 60, 120 min separately. The positive control group was set as 0.5 μM CYP3A4 probe substrate-testosterone and 0.5 μM UGT probe substrate-7-hydroxycoumarin incubated with microsomes for 0 and 120 min in the presence of NADPH and UDPGA; the negative control group (NC) was set as the test substance incubated with microsomes for 0 and 120 min without any coenzyme. After the reaction was terminated by adding pre-cooled methanol at each termination time, the reaction mixture was centrifuged at 4000 rpm for 10 min, the supernatant was taken and the remaining amount of the parent drug in the sample was measured by LC-MS/MS, the results of which are shown in Table 4.
(In general: Microsomes from liver hold many membrane-bound enzymes, among them those of drug oxidation.)

The test system of another data set is MDCKII-MDR1 cells. As to the kind of experiment: MDCKII-MDR1 cell permeability assay. To be noted: 1 μM test compound, 2 h. Type of data set: in vitro ADME. As to the method:
(§1) 50 μL of MDCKII-MDR1 cell suspension with a density of 1.56×10^6 cells/mL was seeded into a Transwell well of a 96-well plate, and the plate was cultured in a cell incubator at 37° C. in 5% CO2. […] The medium in Transwell was discarded, and HBSS equilibration solution was added and incubated at 37° C. for 30 min. Subsequently, an apical to basolateral drug transport rate assay was performed by adding 1 μM test compound solution to the Transwell AB side and a blank equilibration solution to the BL side. When the basolateral to apical drug transport rate assay was performed, the operation steps were reversed. Subsequently, the cells were placed in an incubator for 2 h. After the incubation, samples were taken from the basolateral and apical respectively, and after centrifugation, the supernatant was subjected to LC-MS/MS analysis, and the apparent permeability coefficient (Papp) was calculated, the results of which are shown in Table 5.

The target in another data set is PARP7 (Homo sapiens (Human), UniProt Q7Z3E1). Nature of the data set: Enzymatic biochemical assay of PARP (chemiluminescence detection kit), PARP7. To be noted: read-out: Inhibitory activity against PAPR7 (IC50). As to the method: (§2) This assay adopted PARP1, TNKS1, TNKS2, PARP7 and PARP14 chemiluminescence detection kits (BPS, Cat No. 80551/80552/80573/80578/79729/80568) for enzymatic biochemical assay of PARP. The specific scheme was as follows: the 1× histone mixture was added to a 96-well plate at 50 μL per well, and the plate was incubated overnight at 4° C. The next day, after the plate was washed with PBST, 200 μL of blocking buffer per well was added, and the plate was incubated for 90 min. After the plate was washed with PBST again, 5 μL of inhibitor, 20 μL of 1×PARP buffer and 25 μL of […] were added to each well, and the plate was incubated at room temperature for 30 min. After the plate was washed with PBST, 100 μL of Elisa ECL substrate A and B mixture was added to each well, chemiluminescence value was immediately read using a plate reader, and IC50 values were calculated.
PARP7, sequence (Q7Z3E1 whole entry): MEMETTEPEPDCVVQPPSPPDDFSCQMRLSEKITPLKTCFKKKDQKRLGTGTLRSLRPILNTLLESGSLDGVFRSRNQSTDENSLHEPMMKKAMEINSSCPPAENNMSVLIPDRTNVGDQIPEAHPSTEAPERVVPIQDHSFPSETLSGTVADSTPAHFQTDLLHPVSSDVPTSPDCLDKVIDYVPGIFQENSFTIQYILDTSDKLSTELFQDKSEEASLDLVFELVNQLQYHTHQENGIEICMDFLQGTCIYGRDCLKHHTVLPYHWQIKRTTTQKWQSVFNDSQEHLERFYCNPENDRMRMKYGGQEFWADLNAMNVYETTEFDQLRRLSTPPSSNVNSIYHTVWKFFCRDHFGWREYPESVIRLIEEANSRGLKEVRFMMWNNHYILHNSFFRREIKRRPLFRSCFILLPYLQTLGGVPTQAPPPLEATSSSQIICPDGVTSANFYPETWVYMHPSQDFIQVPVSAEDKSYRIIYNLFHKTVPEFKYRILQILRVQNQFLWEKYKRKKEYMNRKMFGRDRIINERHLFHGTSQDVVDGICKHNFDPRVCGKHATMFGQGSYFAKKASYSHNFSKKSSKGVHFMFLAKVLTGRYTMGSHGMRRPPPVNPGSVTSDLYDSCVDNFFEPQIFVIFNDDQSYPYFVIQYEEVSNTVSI

In another data set the target is PARP1 (Homo sapiens (Human), UniProt P09874). Nature of the data set: Enzymatic biochemical assay of PARP (chemiluminescence detection kit), PARP1. As to the method: as §2
PARP1, sequence (P09874 whole entry): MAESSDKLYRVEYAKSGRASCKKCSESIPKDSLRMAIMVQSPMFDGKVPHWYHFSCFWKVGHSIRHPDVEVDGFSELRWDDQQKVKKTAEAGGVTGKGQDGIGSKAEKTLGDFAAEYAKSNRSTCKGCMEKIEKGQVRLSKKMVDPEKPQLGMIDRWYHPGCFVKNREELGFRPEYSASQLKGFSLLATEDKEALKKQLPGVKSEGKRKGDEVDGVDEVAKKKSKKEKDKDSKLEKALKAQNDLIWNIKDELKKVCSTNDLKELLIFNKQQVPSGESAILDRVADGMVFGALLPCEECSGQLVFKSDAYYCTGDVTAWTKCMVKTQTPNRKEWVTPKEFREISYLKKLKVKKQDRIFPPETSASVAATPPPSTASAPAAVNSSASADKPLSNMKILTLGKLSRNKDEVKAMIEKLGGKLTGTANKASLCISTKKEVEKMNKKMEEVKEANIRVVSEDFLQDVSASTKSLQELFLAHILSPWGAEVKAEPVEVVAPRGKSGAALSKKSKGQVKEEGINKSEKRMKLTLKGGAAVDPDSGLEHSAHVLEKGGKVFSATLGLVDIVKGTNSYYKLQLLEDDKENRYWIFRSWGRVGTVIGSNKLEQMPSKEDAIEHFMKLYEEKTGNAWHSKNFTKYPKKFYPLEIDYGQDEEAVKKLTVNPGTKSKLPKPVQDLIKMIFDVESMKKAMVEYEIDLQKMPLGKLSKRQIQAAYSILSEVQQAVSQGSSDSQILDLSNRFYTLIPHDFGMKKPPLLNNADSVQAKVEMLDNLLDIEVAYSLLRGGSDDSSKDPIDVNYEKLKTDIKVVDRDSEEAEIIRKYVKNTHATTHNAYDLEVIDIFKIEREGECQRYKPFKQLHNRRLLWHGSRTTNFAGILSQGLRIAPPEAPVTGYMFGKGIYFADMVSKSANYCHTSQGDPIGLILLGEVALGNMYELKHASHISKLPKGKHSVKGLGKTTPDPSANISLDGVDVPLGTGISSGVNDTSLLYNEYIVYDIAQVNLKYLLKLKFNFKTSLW
In another data set the target is TNKS1 (Homo sapiens (Human), UniProt O95271). As to the kind of experiment: Enzymatic biochemical assay of PARP (chemiluminescence detection kit), TNKS1. As to the method:
as §2

The target in the next data set is TNKS2 (Homo sapiens (Human), UniProt Q9H2K2). As to the kind of experiment: Enzymatic biochemical assay of PARP (chemiluminescence detection kit), TNKS2. As for the experimental part: as §2
TNKS2, sequence (Q9H2K2 whole entry): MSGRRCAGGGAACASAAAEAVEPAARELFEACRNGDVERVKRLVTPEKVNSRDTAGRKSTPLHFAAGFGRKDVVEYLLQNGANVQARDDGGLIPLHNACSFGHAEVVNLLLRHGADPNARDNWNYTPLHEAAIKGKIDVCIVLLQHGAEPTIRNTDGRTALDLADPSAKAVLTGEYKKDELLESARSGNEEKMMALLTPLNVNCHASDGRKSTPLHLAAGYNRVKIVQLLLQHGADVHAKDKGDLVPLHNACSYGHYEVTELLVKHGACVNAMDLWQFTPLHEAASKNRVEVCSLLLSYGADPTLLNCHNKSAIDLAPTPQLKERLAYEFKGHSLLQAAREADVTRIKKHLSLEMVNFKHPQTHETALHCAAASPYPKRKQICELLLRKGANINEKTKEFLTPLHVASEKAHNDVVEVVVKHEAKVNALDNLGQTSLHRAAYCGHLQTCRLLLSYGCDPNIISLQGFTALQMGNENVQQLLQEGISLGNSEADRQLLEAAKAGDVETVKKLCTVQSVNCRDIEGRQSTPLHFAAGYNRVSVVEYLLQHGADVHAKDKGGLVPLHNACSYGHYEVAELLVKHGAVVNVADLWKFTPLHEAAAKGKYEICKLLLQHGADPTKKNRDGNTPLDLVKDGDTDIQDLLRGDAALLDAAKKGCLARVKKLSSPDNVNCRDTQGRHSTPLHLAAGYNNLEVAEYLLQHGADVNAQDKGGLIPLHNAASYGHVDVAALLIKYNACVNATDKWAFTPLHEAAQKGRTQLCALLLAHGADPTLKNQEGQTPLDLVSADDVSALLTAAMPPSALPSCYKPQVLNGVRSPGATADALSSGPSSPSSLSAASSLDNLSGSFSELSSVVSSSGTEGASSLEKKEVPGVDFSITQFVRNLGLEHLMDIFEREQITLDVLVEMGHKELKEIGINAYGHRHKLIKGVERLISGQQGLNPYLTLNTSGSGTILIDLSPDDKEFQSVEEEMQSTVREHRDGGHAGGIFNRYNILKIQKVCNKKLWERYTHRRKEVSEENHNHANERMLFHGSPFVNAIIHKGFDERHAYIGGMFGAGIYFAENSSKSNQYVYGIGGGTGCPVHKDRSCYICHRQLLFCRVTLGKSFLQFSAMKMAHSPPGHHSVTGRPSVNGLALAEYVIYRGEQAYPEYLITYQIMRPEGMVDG
Another data set addresses PARP14 (Homo sapiens (Human), UniProt Q460N5). As to the kind of experiment: Enzymatic biochemical assay of PARP (chemiluminescence detection kit), PARP14. As for the experimental part: as §2
The test system of the next data set is NCI-H1373 cells. Nature of the data set: NCI-H1373 cell proliferation inhibition assay. To be noted: Homo sapiens, NCI-H1373, 144 h; 6 days of incubation, Cell Titer Blue. The data set is classed as cell-based. As for the experimental part:
Human lung adenocarcinoma cells NC-H1373 (ATCC, CRL-5866M) were cultured in a cell incubator at 37° C. and 5% CO2 using RPMI-1640 medium containing 10% FBS and 1% […]. The cells in the logarithmic growth phase were counted by digestion and inoculated in a 96-well plate at 1500 NCI-H1373 per well, and the plate was placed in an incubator overnight. The next day, test compounds were formulated in 10 mM stock solution by using DMSO and 3-fold diluted in gradient from a maximum concentration of 10 μM by using RPMI-1640 medium, and 10 gradient concentrations were set with 2 parallel wells per concentration gradient. After 6 days of incubation, 100 μL of Cell Titer Blue working solution was added to each well and the chemiluminescence value was read in a microplate reader. IC50 was calculated using GraphPad Prism7.0 software.
(In general: Alamar Blue is a resazurin reagent that responds to reducing activity.)

Another data set relates to MDR1. As to the kind of experiment: MDCKII-MDR1 cell permeability assay. To be noted: dog, MDCK-MDR1, 1 μM test compound; for Papp A→B at 2 h, 1 μM: apical to basolateral; for Papp B→A at 2 h, 1 μM: basolateral to apical. The data set is classed as in vitro ADME. As to the method: as §1

A value given as a limit tells only on which side of the number the result lay.

TNKS1, sequence (O95271 whole entry): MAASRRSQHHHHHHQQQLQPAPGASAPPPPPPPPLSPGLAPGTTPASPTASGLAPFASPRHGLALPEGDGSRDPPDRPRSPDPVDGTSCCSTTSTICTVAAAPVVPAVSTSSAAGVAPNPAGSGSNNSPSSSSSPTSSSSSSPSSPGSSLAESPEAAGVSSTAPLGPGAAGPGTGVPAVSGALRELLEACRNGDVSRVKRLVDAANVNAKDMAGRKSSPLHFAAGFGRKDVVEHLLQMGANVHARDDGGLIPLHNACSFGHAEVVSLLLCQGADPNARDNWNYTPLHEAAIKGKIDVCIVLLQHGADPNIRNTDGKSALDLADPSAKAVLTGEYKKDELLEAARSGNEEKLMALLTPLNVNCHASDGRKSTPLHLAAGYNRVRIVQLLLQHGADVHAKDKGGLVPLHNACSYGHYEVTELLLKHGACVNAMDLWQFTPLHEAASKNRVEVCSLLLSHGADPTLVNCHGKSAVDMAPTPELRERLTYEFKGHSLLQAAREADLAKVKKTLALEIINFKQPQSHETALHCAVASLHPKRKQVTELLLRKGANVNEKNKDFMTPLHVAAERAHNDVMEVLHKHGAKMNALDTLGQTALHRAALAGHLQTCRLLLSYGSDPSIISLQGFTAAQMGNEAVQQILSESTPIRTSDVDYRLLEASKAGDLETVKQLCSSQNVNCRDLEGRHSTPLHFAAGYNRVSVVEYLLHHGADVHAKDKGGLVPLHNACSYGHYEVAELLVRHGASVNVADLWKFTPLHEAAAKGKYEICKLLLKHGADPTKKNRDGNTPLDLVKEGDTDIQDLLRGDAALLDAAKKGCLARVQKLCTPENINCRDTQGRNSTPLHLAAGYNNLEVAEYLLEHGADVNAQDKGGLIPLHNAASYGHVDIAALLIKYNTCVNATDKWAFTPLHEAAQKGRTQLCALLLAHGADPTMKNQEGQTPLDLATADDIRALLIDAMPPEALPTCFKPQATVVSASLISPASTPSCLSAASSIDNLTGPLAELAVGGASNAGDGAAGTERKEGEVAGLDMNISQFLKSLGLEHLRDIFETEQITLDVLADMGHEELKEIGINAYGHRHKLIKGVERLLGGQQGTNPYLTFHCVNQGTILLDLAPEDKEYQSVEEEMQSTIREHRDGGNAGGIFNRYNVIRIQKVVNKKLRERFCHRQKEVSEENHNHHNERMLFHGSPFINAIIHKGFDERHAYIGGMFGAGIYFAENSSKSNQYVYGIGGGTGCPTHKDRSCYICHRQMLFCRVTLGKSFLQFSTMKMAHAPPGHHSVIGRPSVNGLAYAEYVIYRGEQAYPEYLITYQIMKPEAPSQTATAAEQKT

In the case of `C[C@@H](COCCC(=O)N1CCN(c2ncc(C(F)(F)F)cn2)CC1)Nc1cn[nH]c(=O)c1C(F)(F)F` [Comparative example, reference compound], the “T1/2” value in [1] is less than 30 min. For the same molecule, in the data set on MDCKII-MDR1 cells (apical to basolateral), the “Papp (A-B)” value is reported as 5.16 10-6, cm/s. In addition, the “Papp (B-A)” value with MDCKII-MDR1 cells (basolateral to apical) is reported as 49.43 10-6, cm/s.

As usually defined, the IC50 is the midpoint of a concentration-inhibition curve. In general, half-life refers to how long it takes for the measured level to halve. Read a low half-life as fast loss. For `C[C@@H](COCc1cc2n(n1)CCN(c1ncc(C(F)(F)F)cn1)C2)Nc1cn[nH]c(=O)c1C(F)(F)F` [Compound 1], the IC50 at PARP7 is 10 to 50 nM; against PARP1, more than 1000 nM; against TNKS1, more than 10000 nM; on TNKS2, more than 10000 nM; against PARP14, more than 10000 nM; in the data set with NCI-H1373 cells it was less than 50 nM. The half-life at 0.5 μM in [1] (liver microsomes) is more than 30 min.

What is called efflux ratio is the permeability from basolateral to apical divided by that in the opposite direction, in the common usage. By Papp A→B is commonly meant how fast a substance crosses the layer from the apical side. The low end stands for slow passage, the high end for fast passage. The Papp B→A is how fast a substance crosses the layer from the basolateral side. `C[C@@H](COCc1nn2c(c1Cl)CN(c1ncc(C(F)(F)F)cn1)CC2)Nc1cn[nH]c(=O)c1C(F)(F)F` [Compound 13, (S)-5-((1-((3-chloro-5-(5-(trifluoromethyl)pyrimidin-2-yl)-4,5,6,7-tetrahydropyrazolo[1,5-a]pyrazin-2-yl)methoxy)propan-2-yl)amino)-4-(trifluoromethyl)pyridazin-3(2H)-one]: the IC50 at PARP7 lay within 10 to 50 nM. The IC50 in the data set with NCI-H1373 cells was less than 50 nM. For the same molecule, in the data set with MDR1, the efflux ratio at 2 h, 1 μM was 2.28; the Papp A→B at 2 h, 1 μM was found to be 6.67 ×10⁻⁶ cm/s; the Papp B→A at 2 h, 1 μM was found to be 14.8 ×10⁻⁶ cm/s.

`CSc1cnc(N2CCn3nc(COC[C@H](C)Nc4cn[nH]c(=O)c4C(F)(F)F)cc3C2)nc1` [Compound 39, (S)-5-((1-((5-(5-(methylthio)pyrimidin-2-yl)-4,5,6,7-tetrahydropyrazolo[1,5-a]pyrazin-2-yl)methoxy)propan-2-yl)amino)-4-(trifluoromethyl)pyridazin-3(2H)-one] displayed an IC50 in the data set with NCI-H1373 cells of less than 50 nM. Also, in the data set on MDR1, the efflux ratio at 2 h, 1 μM came out at 4.09; the Papp A→B at 2 h, 1 μM worked out at 8.82 ×10⁻⁶ cm/s; the Papp B→A at 2 h, 1 μM came out at 35.5 ×10⁻⁶ cm/s.
